{"source": "patent EP4467137A1", "about": "“TREATMENT OF FRONTOTEMPORAL DEMENTIA OR FRONTOTEMPORAL LOBAR DEMENTIA” (Universidad Autónoma de Madrid, priority 2023, dated 2024)", "key": {"[1]": {"tested_on": "proinflammatory cytokines", "experiment": "LPS in vivo model: brain cytokine mRNAs by qRT-PCR", "set-up": "species or system mouse", "conditions": "20 mg·kg^-1 i.p. daily for 4 days; 4 h and 24 h after LPS 0.5 mg·kg^-1 i.p.", "experimental": "• Figure 1. Compound 1 reduces the inflammatory response against LPS in vitro. (A) Nitric oxide (NO) production in BV2 cells detected by DAF 24 h after LPS exposure and normalized by cell viability measured by MTT (n = 9). (B) qRT-PCR of TNFα (n = 9) in BV2 cells after 24 h LPS exposure. Sulforaphane (Sfn) was used as a positive control. […] Compound 1 decreases the inflammatory process 4 and 24 hours after LPS administration in vivo. Compound 1 (20 mg·kg^-1) daily was injected i.p. four days before the i.p. LPS (0.5 mg·kg^-1) administration. […] Compound 1 ameliorates the resolution of the inflammatory process triggered by LPS. […] (B) Locomotion activity measured by line crossings of an imaginary grid. […] Compound 1 reduced tau seeding in HEK-293 tau FRET biosensor measured by flow cytometer (C). […] Representative images of hyperphosphorylated tau intensity measured by AT8 and AT180 antibodies in three different regions of the hippocampus (GD, CA3 and CA1) (n = 11-12). (B) Quantification AT8 intensity, normalized to CA3 intensity of Sham animals. (C) Quantification of AT180 intensity, normalized to CA3 intensity of Sham animals (n = 9-12). […] Quantification of sarkosyl soluble (n = 10) (C) and insoluble species (D) using AT8 antibody (n = 10). Quantification of sarkosyl soluble (n = 10) (E) and insoluble species (F) using AT180 antibody (n = 10). […]"}, "hyperphosphorylated tau": {"tested_on": "hyperphosphorylated tau", "experiment": "In vivo hTauP301L model: western blot of sarkosyl soluble and insoluble hyperphosphorylated tau", "set-up": "species or system mouse", "conditions": "adult mice; 50 mg/kg/day oral, 35 days; sarkosyl insoluble fraction", "experimental": "In vivo hTau301L model was induced by stereotaxic injection of AAV-hTauP301L (AAV-hTau) particles as described in [Luengo, Enrique et al. \"Implication of type 4 NADPH oxidase (NOX4) in tauopathy.\" Redox biology vol. 49 (2022): 102210. doi:10.1016/j.redox.2021.102210 ]. Control animals were injected with AAV-GFP. Evaluation of hyperphosphorylated tau in sarkosyl soluble and insoluble fractions; microgliosis; AT8 and AT180 by immunofluorescence; and cognitive test were performed as described previously [Luengo, Enrique et al. \"Implication of type 4 NADPH oxidase (NOX4) in tauopathy.\" Redox biology vol. 49 (2022): 102210. doi:10.1016/j.redox.2021.102210 ].\nOral administration of Compound 1 at different dosages (20 mg·kg^-1 and 50 mg·kg^-1) was administered embedded in gelatine. The compound was given in a mixture of 10 % gelatine from porcine skin and 10 % sucralose in water, heated in a microwave oven. Before Compound 1 addition, gelatine mixture was left at RT. Afterwards, the compound was added, evenly mixed and plated 1 mL·well^-1 in a P24 plate. […]\nExample 2.5. […] After 35 days treatment, hyperphosphorylated tau levels were evaluated by immunofluorescence and by WB in soluble and insoluble in sarkosyl fractions. […]\nAfter 35 days of treatment, monomeric and oligomeric forms of tau, soluble and insoluble in sarkosyl, were analysed by western blot. […]"}}}
{"smiles": "COc1ccc2c(c1)CC(c1c[nH]c3ccc(OC)cc13)N2", "note": "(stereo not shown) [Compound 1, 5-Methoxy-3-(5-methoxyindolin-2-yl)-1H-indole]", "values": [{"measurement": "IL-1β mRNA in brain", "setting": "[1]", "result": "reduced"}, {"measurement": "TNFα mRNA in brain", "setting": "[1]", "result": "reduced"}, {"measurement": "insoluble monomers of AT180", "setting": "hyperphosphorylated tau", "result": "significant reduction"}, {"measurement": "insoluble oligomers of AT180", "setting": "hyperphosphorylated tau", "result": "tendency to reduce"}]}
